How the values were obtained:
[1] = system: C57 mice, hot plate pain model; assay: mice hot plate pain model; type: in vivo, mouse; details: 10 mg/kg intraperitoneal, hot plate 55±0.1° C., within 60 minutes
Protocol: SPF-grade C57 male mice were placed at hot plate with constant 55±0.1° C. […] If the pain reaction of mice was observed, the mice were taken out immediately to prevent mice from scalding. […] The test compounds were freshly prepared on the day of administration. 0.9% NaCl physiological saline solution was prepared as solvent for later use. Appropriate amount of test compounds were added into required volume of physiological saline and fully suspended, and the concentration of the drug compound in preparation was 1 mg/ml. The standard volume of administration to mice was 10 ml/kg (or 0.1 ml/10 g). […] The administration volume was 10 ml/kg. […] Hot plate observation index: the reaction time of mice on the hot plate at 55±0.1° C. (Time latency). Measurement and recording were conducted at 3 h before administration and 15 min, 30 min, and 60 min after administration. Maximum possible effect (MPE) % was used to evaluate analgesic effect of each compound, i.e., MPE %=[(Post drug latency-baseline latency)/(30-baseline latency)]×100. MPE % at different time points was recorded. The higher the value of MPE % was, the stronger the analgesic effect of the compound was.

[2] = system: SH—SY5Y cells; assay: Cytotoxicity test (CCK-8), neurotoxicity; type: cell-based; details: Homo sapiens, 72 h
Protocol: HepG-2 and SH—SY5Y cells were placed in 10 cm dish and cultured at 37° C., 5% CO2 in a cell incubator. Trypsin was used to digest and resuspend cells and cells were counted. The cells were transferred to 96-well plate with 8000 cells in a well (100 μl/well). A serial of gradient concentration dilutions of compound with 2-fold dilution were prepared, and the system was 100 μL/well. The supernatant of cell culture system in the 96-well plate was removed on the first day, and fresh-prepared drug concentration system was add into culture plate wells (duplicate wells were set). The cells were cultured at 37° C., 5% CO2 in a cell incubator for 72 h. After the cell culture was completed, the supernatant of cell culture system was removed from 96-well plate, 100 μl of detection solution containing 10% CCK-8 medium was added into each well, and the cells were cultured at 37° C., 5% CO2 in a cell incubator for 1 h. Microplate reader was used to measure the absorbance at 450 nm. Data was processed to calculate cytotoxicity, and IC50 was calculated by GraphPad Prism. […]
A (Dosing): the absorbance of wells containing cells, CCK-8 solution and drug solution.
A (control): the absorbance of wells containing medium and CCK-8 solution and without cells.
A (0 Dosing): the absorbance of wells containing cells and CCK-8 solution but without drug solution.

[3] = system: C57BL/6 mice, ICS model; assay: mice ICS model (fibromyalgia), mechanical allodynia test; type: in vivo, mouse; details: 10 mg/kg oral
Protocol: After completely dissolved, the duloxetine was administered orally. The volume of administration was 5 ml/kg.
10 mg/kg compound Ic-1:17 mg of compound Ic-1 was weighed, dissolved in saline and diluted to 8.5 mL. After completely dissolved, the compound Ic-1 was administered orally. The volume of administration was 5 ml/kg.
Male C57BL/6 mice weighed 18-22 g were selected at the beginning of experiment. Each cage had 4 mice which were allowed to feed and drink water freely. Each experimental group had 12 mice, and the experimental mice were labeled by tail labeling method.
Day 0: At 4:30 pm, the mice were put in a plexiglass box with stainless steel mesh, and then the plexiglass box was put in cold environment (4±2° C.) overnight. The mice were allowed to feed freely and drink, and agar was used to replace water.
Day 1: At 10:00 am, the mice were delivered to room temperature (24±2° C.) environment for 30 min, and then the mice were delivered to cold environment for 30 min. The above steps were repeated until 4:[…], and the mice were put in cold environment overnight.
Day 2: the operation on day 1 was repeated.
Day 3: the mice were taken out from cold environment at 10:00 am.
The compounds were administered orally according to the schedule of experiment, and the dosage was 10 mg/kg.
On the fourth day after modeling, the pre-administration mechanical allodynia test was performed on the animals. Animals with PWT value greater than 0.5 g were excluded and were not used for experiments. On the fifth day after modeling, the animals were tested for mechanical allodynia at 0.5 h, 1 h, and 2 h after the administration of compounds. […]
During the test, rapid withdrawal of animal claw was recorded as pain response. When the test fiber was removed from animal skin, the withdrawal of animal claw was also recorded as pain response. If animal moved, the pain response was not recorded, and the test was repeated. […] The maximum strength of tested fiber was 4.17 (1.4 g). • The test results were recorded in Table 4 below, wherein pain response was recorded as X and no pain response was recorded as O. […]

Structure (SMILES)	analgesic effect (MPE %) on hot plate [1]	IC50 [2] [µM]	PWT (g) Mean ± SD ([3]; 0.5 h after administration) [g]	PWT (g) Mean ± SD ([3]; 1 h after administration) [g]	PWT (g) Mean ± SD ([3]; 2 h after administration) [g]
CNCC[C@H](Oc1cccc2ccoc12)c1cccs1 [Compound IC-1, (S)-3-(benzofuran-7-yloxy)-N-methyl-3-(thiophen-2-yl)propyl-1-amine]	stronger than those of gabapentin and duloxetine	–	–	–	–
CNCC[C@H](Oc1cccc2ccccc12)c1cccs1 [Duloxetine (S configuration), Duloxetine]	–	28	0.416 ± 0.140	0.648 ± 0.155	0.530 ± 0.235

Source: US20220119375A1, “3-ARYLOXY-3-ARYL-PROPYLAMINE COMPOUND AND USES THEREOF” (Zhangzhou Pien Tze Huang Pharmaceutical Co., Ltd., priority 2018, published 2022)
